{
  "source": "patent US9139502B2",
  "about": "“Use of an urushiol compound in preparation of pharmaceutical compositions for inhibiting Smad3 phosphorylation” (Southern Hospital, Southern Medical University, priority 2013, dated 2015)",
  "key": {"C57BL/6J mice": {"tested_on": "C57BL/6J mice", "assay": "Single-dose toxicity of GQ-5 in mice", "assay_type": "in vivo", "details": "single intraperitoneal dose up to 800 mg/kg, 7-day observation", "procedure": "To test the toxicity of GQ-5, 20 C57BL/6J little male mice which are […], healthy and clean, their weights are between 20 and 22 gram. Antisepsis the feed and water, before and in the layoff period of the test, all the mice should be feed under the normal feeding condition.\nDissolve GQ-5 in 0.5% propylene glycol, this liquor is given to little mice by intraperitoneal injection. The dosage of GQ-5 was 10, 40, 200, and 800 mg/kg body weight of mice. After administration, they are observed for 7 days."}, "Smad4 [1]": {"tested_on": "Smad4", "assay": "Western blot of Smad4 expression in vitro", "assay_type": "cell-based, rat", "details": "NRK52E and NRK49F cells, GQ-5 2.5 nM pre-treated 1 h, TGF-β1 10 ng/ml 1 h", "procedure": "(§1) NRK52E and NRK49F cells were cultured in DMEM-Ham's medium (Gibco, Life Techologies, NY, USA) supplemented with 10% fetal bovine serum (Gibco, Life Techologies, NY, USA). The cells reached at approximately 50% confluence were used for in vitro experiments. Cells were serum-starved for 12 h, and randomized into 4 groups: (1) Controls; (2) GQ-5 only; (3) TGF-β1 only; (4) TGF-β1+GQ-5\n(§2) (2) GQ-5 only: pre-treated with GQ-5 (2.5 μM) for 1 h, followed with DMEM for 1 h\n(§3) (3) TGF-β1 only: pre-treated with DMSO (0.1%) for 1 h, followed with TGF-β1 (10 ng/ml) for 1 h\n(§4) (4) TGF-β1+GQ-5: pre-treated with GQ-5 (2.5 nM) for 1 h, followed with TGF-β1 (10 ng/ml) for 1 h\n(§5) GQ-5 was dissolved in DMSO. Cells were treated as described. cell lysates were immunoblotted with antibodies against Smad4, Smad7, phospho-p38, p38, phospho-PI3K, PI3K, phosphor-ERK, and ERK."}, "ERK": {"tested_on": "ERK", "assay": "Western blot of TGF-β1-induced ERK phosphorylation in vitro", "assay_type": "cell-based, rat", "details": "NRK52E and NRK49F cells, GQ-5 2.5 nM pre-treated 1 h, TGF-β1 10 ng/ml 1 h", "procedure": "as §1, §2, §3, §4, §5"}, "Smad3": {"tested_on": "Smad3", "assay": "Immunofluorescence staining of TGF-β1-induced Smad3 nuclear translocation", "assay_type": "cell-based, rat", "details": "NRK52E cells, GQ-5 2.5 μM pre-treated 1 h, TGF-β1 10 ng/ml 2 h", "procedure": "(§6) NRK52E cells were cultured in DMEM-Ham's medium supplemented with 10% fetal bovine serum. The cells reached at approximately 50% confluence were used for in vitro experiments. Cells were serum-starved for 12 h, and randomized into 3 groups: (1) Controls; (2) TGF-β1 only; (3) TGF-β1+GQ-5.\n(§7) (2) TGF-β1 only: pre-treated with DMSO for 1 h, followed with TGF-β1 (10 ng/ml) for 2 h\n(§8) (3) TGF-β1+GQ-5: pre-treated with GQ-5 (2.5 μM) for 1 h, followed with TGF-β1 (10 ng/ml) for 2 h\n(§9) GQ-5 was dissolved in DMSO. Cells were treated as described Immunofluorescence staining was performed to examine the nuclear translocation of Smad2, Smad3, and Smad4."}, "Smad4 [2]": {"tested_on": "Smad4", "assay": "Immunofluorescence staining of Smad4 nuclear translocation", "assay_type": "cell-based, rat", "details": "NRK52E cells, GQ-5 2.5 μM pre-treated 1 h, TGF-β1 10 ng/ml 2 h", "procedure": "as §6, §7, §8, §9"}, "fibronectin [3]": {"tested_on": "fibronectin", "assay": "Western blot of TGF-β1-induced fibronectin protein in vitro", "assay_type": "cell-based, rat", "details": "NRK 52E and NRK 49F cells, GQ-5 0.1-2.5 μM pre-treated 1 h, TGF-β1 10 ng/ml 48 h", "procedure": "as §6, with “NRK52E and NRK49F” for “NRK52E”, “6” for “3”, “(2) GQ-5 only; (3)” for “(2)”, “(4) TGF-β1+GQ-5 0.1 μM; (5) TGF-β1+GQ-5 0.5 μM; (6) TGF-β1+GQ-5 2.5 μM” for “(3) TGF-β1+GQ-5.”\n(2) GQ-5 only: pre-treated with GQ-5 (2.5 μM) for 1 h, followed with DMEM for 48 h\n(3) TGF-β1 only: pre-treated with DMSO for 1 h, followed with TGF-β1 (10 ng/ml) for 48 h\n(4) TGF-β1+GQ-5 0.1 μM: pre-treated with GQ-5 (0.1 μM) for 1 h, followed with TGF-β1 (10 ng/ml) for 48 h\n(5) TGF-β1+GQ-5 0.5 μM: pre-treated with GQ-5 (0.5 μM) for 1 h, followed with TGF-β1 (10 ng/ml) for 48 h\n(6) TGF-β1+GQ-5 2.5 μM: pre-treated with GQ-5 (2.5 μM) for 1 h, followed with TGF-β1 (10 ng/ml) for 48 h\nGQ-5 was dissolved in DMSO. Cells were treated as described. Cells lysates were immunebloted with antibodies against α-SMA, collagen I and fibronectin."}, "UUO rats": {"tested_on": "UUO rats", "assay": "Renal interstitial fibrosis after UUO (HE and Masson trichrome staining)", "assay_type": "in vivo, rat", "details": "GQ-5 40 mg/kg daily i.p. initiating right after or 7 days after operation, sacrificed day 14", "procedure": "(§10) Male Sprague-Dawley rats were randomized into 4 groups (n=6 in each group): (1) sham operated rats; (2) UUO rats; (3) UUO+GQ-5 d1 rats; (4) UUO+GQ-5 d7 rats.\n(§11) GQ-5 was dissolved in 5% propylene glycol.\n(§12) (3) UUO+GQ-5 d1 rats: daily intraperitoneal injection of GQ-5 (40 mg/kg body weight) right after UUO;\n(§13) (4) UUO+GQ-5 d7 rats: daily intraperitoneal injection of GQ-5 (40 mg/kg body weight) 7 days after UUO.\n(§14) UUO was performed using an established protocol as described. GQ-5 was dissolved in 5% propylene glycol. Rats were administrated with GQ-5 as described before. All the rats were sacrificed 14 days after UUO. HE staining, Masson trichrome staining were performed to examine the renal tissue injury, and Real-time PCR analyses, immunohistochemical staining, and Western blot analyses were performed to examine α-SMA, collagen I and fibronectin expression in kidney tissue"}, "fibronectin [4]": {"tested_on": "fibronectin", "assay": "Fibronectin expression in UUO kidney tissue (real-time PCR, immunohistochemistry, Western blot)", "assay_type": "in vivo, rat", "details": "UUO rats, GQ-5 40 mg/kg daily i.p., sacrificed day 14", "procedure": "as §10, §11, §12, §13, §14"}},
  "data": [
    {"compound": "CCCCCC/C=C\\CCCCCCCc1cccc(O)c1O", "note": "[GQ-5, 3-[(Z)-pentadec-8-enyl]catechol]", "values": [
      {"measurement": "death or adverse event", "setting": "C57BL/6J mice", "value": "did not die or developed any adverse event"},
      {"measurement": "protein expression of Smad4", "setting": "Smad4 [1]", "value": "did not affect"},
      {"measurement": "TGF-β1-induced phosphorylation of ERK", "setting": "ERK", "value": "did not affect"},
      {"measurement": "TGF-β1-induced Smad3 nuclear translocation", "setting": "Smad3", "value": "significantly reduced"},
      {"measurement": "nuclear translocation of Smad4", "setting": "Smad4 [2]", "value": "also reduced"},
      {"measurement": "TGF-β1-induced protein expression of fibronectin", "setting": "fibronectin [3]", "value": "significantly inhibited"},
      {"measurement": "inflammatory cell infiltration", "setting": "UUO rats", "value": "significantly reduced"},
      {"measurement": "interstitial fibrosis score", "setting": "UUO rats", "value": "significantly reduced"},
      {"measurement": "up-regulation of fibronectin at both mRNA and protein level", "setting": "fibronectin [4]", "value": "significantly inhibited"}
    ]}
  ]
}
